Reference: PubChem BioAssay (NCI)
Several values for one entry are separate records, joined by “and”; a condition that tells them apart may be missing. Identical values can stand only once.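 How tested: cells in 96-well plates exposed to compound for 48 hours at five concentrations. GI50 = concentration required for 50% inhibition of growth. TGI: concentration producing complete growth inhibition.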

How the values were obtained:
Assay in all cases: inhibition of tumour cell growth, NCI panel, 48 h
[1] = test system: DMS 114 small cell lung
[2] = test system: KM20L2 colon
[3] = test system: UACC-62 melanoma
[4] = test system: SNB-78 CNS
[5] = test system: LOX IMVI melanoma
[6] = test system: LXFL 529 NSCLC
[7] = test system: DMS 273 small cell lung
[8] = test system: MDA-MB-231 breast
[9] = test system: PC-3 prostate
[10] = test system: T-47D breast

Structure (SMILES) | TGI [1] [µM] | TGI [2] [µM] | TGI [3] | TGI [4] [µM] | TGI [5] | TGI [6] [µM] | TGI [7] [µM] | TGI [8] | GI50 [9] | TGI [9] | TGI [10] | GI50 [1] [µM] | GI50 [2] [µM] | GI50 [3] [µM] | GI50 [5] [µM] | GI50 [6] [µM] | GI50 [7] [µM] | GI50 [4] [µM]
O=C(c1ccccc1)C1OC12C(=O)Nc1ccccc12 (configuration not stated) | 88.8 | 66.8 | > 100 µM | > 100 | > 100 µM | 30.3 | > 100 | – | – | – | – | – | – | – | – | – | – | –
CC(=O)O[C@]12CCCCCC1C1(O)C(O)CCCC[C@H]12 (some centres not stated) | > 100 | > 100 | > 100 µM | > 100 | > 100 µM | > 100 | > 100 | – | – | – | – | – | – | – | – | – | – | –
O=C1CSC(/C(=N/Nc2ccccc2)c2nc3ccccc3[nH]2)=N1 | > 100 | > 100 | > 100 µM | > 100 | > 100 µM | > 100 | 47.3 | – | – | – | – | – | – | – | – | – | – | –
O=C1[C@@H]2C(c3ccccc3F)=NO[C@@H]2C(=O)N1c1ccc(Cc2ccc(N3C(=O)[C@H]4C(c5ccccc5F)=NO[C@H]4C3=O)cc2)cc1 | > 100 | > 100 | > 100 µM | > 100 | > 100 µM | > 100 | > 100 | – | – | – | – | – | – | – | – | – | – | –
O=c1c2cc(Br)cc(Br)c2nc(CCCl)n1CCO | > 100 | > 100 | > 100 µM | > 100 | > 100 µM | > 100 | – | – | – | – | – | – | – | – | – | – | – | –
COc1cc(/C=C(\C#N)c2ccccc2)cc(OC)c1 | > 100 | > 100 | > 100 µM | > 100 | 65.4 µM | > 100 | – | – | – | – | – | – | – | – | – | – | – | –
C=CC/C=C/C/C=C/CCCCCCCc1cccc(O)c1C(=O)O | > 100 | > 100 | > 100 µM | > 100 | > 100 µM | > 100 | > 100 | – | – | – | – | – | – | – | – | – | – | –
O=C1CC2CCCC23CC2(CCN13)OCCO2 (configuration not stated) | > 100 | > 100 | > 100 µM | > 100 | > 100 µM | > 100 | > 100 | – | – | – | – | – | – | – | – | – | – | –
NC(=O)NCc1c(C(N)=O)ncn1Cc1ccccc1 | > 100 | > 100 | > 100 µM | > 100 | > 100 µM | > 100 | > 100 | – | – | – | – | – | – | – | – | – | – | –
CC(C)(C)c1cc(C(O)(C(F)(F)F)C(F)(F)F)c2c(c1)C(C(F)(F)F)(C(F)(F)F)OC(C(C)(C)C)N2 (configuration not stated) | 8.95 | 11.5 | 14.4 µM | 14.2 | – | 11.7 | 11.1 | – | – | – | – | – | – | – | – | – | – | –
OCc1ccc(C2CC(c3ccco3)=NN2c2ccccc2)o1 (configuration not stated) | > 100 | > 100 | > 100 µM | > 100 | > 100 µM | > 100 | > 100 | – | – | – | – | – | – | – | – | – | – | –
O=C(Nc1c(Cl)cc([N+](=O)[O-])cc1Cl)C(=O)C(C1OC(=O)c2ccccc21)[N+](=O)[O-] (configuration not stated) | > 100 | > 100 | > 100 µM | > 100 | > 100 µM | > 100 | – | – | – | – | – | – | – | – | – | – | – | –
Nc1ccc2cc3ccc(N)cc3nc2c1 | 3.03 | 6.61 | 3.73 µM [middle of 4 runs] | 9.23 | 7.71 µM and 3.58 µM and 3.09 µM | 10.3 | 3.33 | 7.94 µM and 5.03 µM and 8.4 µM | 0.857 µM and 1.96 µM and 1.5 µM | 4.88 µM and 24.7 µM | 14.9 µM and 9.61 µM and 8.53 µM | – | – | – | – | – | – | –
C/C(CC(=O)NCCc1ccccc1)=N\NC(=O)C[n+]1ccccc1 | > 100 | > 100 | > 100 µM | > 100 | > 100 µM | > 100 | > 100 | – | – | – | – | – | – | – | – | – | – | –
C=C1C(=O)OC2/C=C(\COC(C)=O)CCC(OC(C)=O)C3=CC(OC3=O)C12 (configuration not stated) | 3.18 | 14.3 | 17.6 µM | 9.55 | 19 µM | 3.56 | 21.7 | 41.7 µM | – | 30.5 µM | 53.4 µM | – | – | – | – | – | – | –
O=C1/C(=C/c2cccc([N+](=O)[O-])c2)COc2ccc(Br)cc21 | > 100 | > 100 | – | > 100 | > 100 µM | > 100 | > 100 | – | – | – | – | – | – | – | – | – | – | –
Clc1ccc2c(c1)-c1c3c(nn1-c1ccccc1)-c1ccccc1SC3O2 (configuration not stated) | > 100 | > 100 | – | > 100 | > 100 µM | > 100 | > 100 | – | – | – | – | – | – | – | – | – | – | –
O=C1NC2OC(C(O)CO)C(O)C2O1 (configuration not stated) | > 100 | > 100 | > 100 µM | – | > 100 µM | > 100 | > 100 | – | – | – | – | – | – | – | – | – | – | –
O=C1OC2CCCC[C@@H]2C2C[C@]34CCCCC3[C@@H](C(=O)O4)C12 (some centres not stated) | > 100 | > 100 | > 100 µM | > 100 | > 100 µM | > 100 | – | – | – | – | – | – | – | – | – | – | – | –
C1C[OH+]CC[OH+]CC[OH+]CC[OH+]CC[OH+]1.[Cl-].[V] | > 100 | > 100 | > 100 µM | – | > 100 µM | > 100 | > 100 | – | – | – | – | > 100 | > 100 | 31.5 | 30.6 | > 100 | 53 | –
CSC(C1c2ccccc2N(c2ccc(C)cc2)c2[nH]c(=O)n(C)c(=O)c21)S(=O)(=O)c1ccc(C)cc1 (configuration not stated) | > 100 | > 100 | > 100 µM | > 100 | > 100 µM | > 100 | > 100 | – | – | – | – | – | – | – | – | – | – | –
Cc1ccc(S(=O)(=O)C(C#N)c2nc3ccccc3nc2-n2ccnc2)cc1 (configuration not stated) | > 100 | – | – | > 100 | – | > 100 | > 100 | – | – | – | – | – | – | – | – | – | – | –
Cc1c(C(=O)/C=C/c2ccccc2)[n+](=O)c2ccccc2n1[O-] | 22.2 | 35.5 | 28.6 µM | > 100 | 28.3 µM | 26 | 30.1 | – | – | – | – | – | – | – | – | – | – | –
O=C1CCC(O)=C1N=Nc1ccccc1 | > 100 | – | 74.1 µM | > 100 | > 100 µM | – | > 100 | – | – | – | – | – | – | – | – | – | – | –
CN(C)c1cc[c]([Sn]([c]2ccc(N(C)C)cc2)([c]2ccc(N(C)C)cc2)[c]2ccc(N(C)C)cc2)cc1 | 13.8 | 14.8 | 17.4 µM | 11.5 | – | 12.9 | 16.4 | – | – | – | – | 3.15 | 4.3 | 3.68 | 2.89 | 3.09 | 4.76 | 3.82
O=C(O)[C@H](NS(=O)(=O)c1ccc([N+](=O)[O-])cc1)c1ccccc1 | > 100 | > 100 | > 100 µM | > 100 | > 100 µM | > 100 | > 100 | – | – | – | – | – | – | – | – | – | – | –
